# In US10259847B2, “Beta-hairpin peptidomimetics” (POLYPHOR AG, priority 2014, dated 2019):
# *1 amine or outer side, *2 acyl side, *3 side chain or, on linkers, in order; H or OH if unused. Where a SMILES comes first, the peptide text is derived from it. Bridges are numbered along the chain shown (N, C = ends). [ ]: non-standard residue; d: D form. Tle = CC(C)(C)[C@H](N)C(=O)O; dDab = NCC[C@@H](N)C(=O)O; hCys = N[C@@H](CCS)C(=O)O; Orn = NCCC[C@H](N)C(=O)O; Dab = NCC[C@H](N)C(=O)O; Dap = NC[C@H](N)C(=O)O; CO = O=C([*:1])[*:2]
# Assays:
# Assay type in all cases: cell-based
# [1] = test system: Acinetobacter baumannii DSM 30008; conditions: DSM 30008
# Description: (§1) Stock solutions were kept at +4° C., light protected.
# (§2) The selective antimicrobial activities of the peptides were determined in 96-well plates (Greiner, polystyrene) by the standard NCCLS broth microdilution method (National Committee for Clinical Laboratory Standards 1993. Methods for dilution antimicrobial susceptibility tests for bacteria that grow aerobically, 3rd ed. Approved standard M7-A6; National Committee for Clinical laboratory standards, Wayne, Pa.) with slight modifications. Inocula of the microorganisms were diluted into Mueller-Hinton II (MH, cation adjusted) broth and compared with a 0.5 McFarland standard to give appr. 10^6 colony forming units (CFU)/mL. Aliquots (90 μl) of inoculate were added to 10 μl of MH broth+P-80 (Polysorbate 80, 0.002% final concentration) containing the peptide in serial two-fold dilutions. The following microorganisms were used to determine antibiotic selectivity of the peptides: Escherichia coli ATCC 25922, Klebsiella pneumoniae ATCC 13883 and Acinetobacter baumannii DSM 30008.
# [2] = test system: Escherichia coli ATCC 25922; conditions: ATCC 25922
# Description: as §1, §2
# [3] = test system: Klebsiella pneumoniae ATCC 13883; conditions: ATCC 13883
# Description: as §1, §2
# [4] = test system: human red blood cells (hRBC); assay: Hemolysis of human red blood cells; conditions: red cells of human, 1 h, 100
# Description: as §1
# Percent hemolysis was calculated as follows: (OD540peptide/OD540H2O)×100%.
Structure (SMILES),Acinetobacter baumannii DSM 30008 MIC [1] [µg/mL],Escherichia coli ATCC 25922 MIC [2] [µg/mL],Klebsiella pneumoniae ATCC 13883 MIC [3] [µg/mL],Hemolysis at 100 μg/mL [4] [%]
"CC(C)(C)[C@@H]1NC(=O)[C@H](CCN)NC(=O)[C@H](Cc2c[nH]c3ccccc23)NC(=O)[C@H](CCN)NC(=O)[C@H](CCN)NC(=O)[C@H](CCN)NC(=O)[C@H](CCN)NC(=O)[C@H](Cc2ccc(O)cc2)NC(=O)[C@@H]2CCNC(=O)C[C@H](NC1=O)C(=O)N[C@@H](CO)C(=O)N1CC[C@@H]1C(=O)N1CCC[C@H]1C(=O)N[C@@H](Cc1c[nH]c3ccccc13)C(=O)N2 [Example 15, cyclo(-Trp-Dab-Tyr-Dab-Dab-Dab-Dab-Trp-Dab-tBuGly-Asp-Ser-^DAzt-Pro-)] (HELM PEPTIDE1{D.S.[O=C([C@H]1CCN1[*:1])[*:2]].P.W.[Dab].Y.[Dab].[Dab].[Dab].[Dab].W.[Dab].[CC(C)(C)[C@H](N[*:1])C(=O)[*:2]]}$PEPTIDE1,PEPTIDE1,1:R3-6:R3|PEPTIDE1,PEPTIDE1,1:R1-14:R2$$$V2.0)",0.5,0.25,0.25,1
"CC(C)C[C@@H]1NC(=O)[C@H](CN)NC(=O)[C@H]2CCCN2C(=O)[C@H](C(C)C)NC(=O)[C@@H]2CSSC[C@H](NC1=O)C(=O)N[C@@H](Cc1ccc(O)cc1)C(=O)N[C@@H](C)C(=O)N[C@@H](CCCN)C(=O)N[C@H](CCN)C(=O)N[C@@H](CCN)C(=O)N[C@@H](Cc1c[nH]c3ccccc13)C(=O)N[C@@H](C)C(=O)N[C@@H](C(C)C)C(=O)N2 [Example 6, cyclo(-Leu-Cys-Tyr-Ala-Orn-^DDab-Dab-Trp-Ala-Val-Cys-Val-^DPro-Dap-)] (HELM PEPTIDE1{A.[Orn].[NCC[C@@H](N[*:1])C(=O)[*:2]].[Dab].W.A.V.C.V.[dP].[NC[C@H](N[*:1])C(=O)[*:2]].L.C.Y}$PEPTIDE1,PEPTIDE1,8:R3-13:R3|PEPTIDE1,PEPTIDE1,1:R1-14:R2$$$V2.0)",1.5,2,2,5
"CC(C)(C)[C@@H]1NC(=O)[C@H](CCN)NC(=O)[C@H](Cc2c[nH]c3ccccc23)NC(=O)[C@H](CCN)NC(=O)[C@@H](CCN)NC(=O)[C@H](CCN)NC(=O)[C@H](CCN)NC(=O)[C@H](Cc2ccc(O)cc2)NC(=O)[C@@H]2CCNC(=O)C[C@H](NC1=O)C(=O)N[C@@H](CO)C(=O)N1CCC[C@@H]1C(=O)N1CCC[C@H]1C(=O)N[C@@H](Cc1c[nH]c3ccccc13)C(=O)N2 [Example 14, cyclo(-Trp-Dab-Tyr-Dab-Dab-^DDab-Dab-Trp-Dab-tBuGly-Asp-Ser-^DPro-Pro-)] (HELM PEPTIDE1{W.[Dab].Y.[Dab].[Dab].[NCC[C@@H](N[*:1])C(=O)[*:2]].[Dab].W.[Dab].[CC(C)(C)[C@H](N[*:1])C(=O)[*:2]].D.S.[dP].P}$PEPTIDE1,PEPTIDE1,2:R3-11:R3|PEPTIDE1,PEPTIDE1,1:R1-14:R2$$$V2.0)",0.5,0.25,0.25,2
"CC(C)[C@@H]1NC(=O)[C@@H]2CCCN2C(=O)[C@H]2CCCN2C(=O)[C@H](CO)NC(=O)[C@@H]2CSSCC[C@H](NC1=O)C(=O)N[C@@H](Cc1ccc(O)cc1)C(=O)N[C@@H](CCN)C(=O)N[C@@H](CN)C(=O)N[C@H](CCN)C(=O)N[C@@H](CCN)C(=O)N[C@@H](Cc1c[nH]c3ccccc13)C(=O)N[C@@H](CCN)C(=O)N[C@@H](C(C)(C)C)C(=O)N2 [Example 39, cyclo(-Val-Hcy-Tyr-Dab-Dap-^DDab-Dab-Trp-Dab-tBuGly-Cys-Ser-^DPro-Pro-)] (cyclo(V[hCys]Y[Dab][Dap][dDab][Dab]W[Dab][Tle]CS[dP]P); disulfide 2-11)",2,1,1,2
"CC(C)C[C@@H]1NC(=O)[C@@H]2CCCN2C(=O)[C@H]2CCCN2C(=O)[C@H](CO)NC(=O)[C@@H]2CCCCNC(=O)C[C@H](NC1=O)C(=O)N[C@@H](Cc1ccc(O)cc1)C(=O)N[C@@H](CCN)C(=O)N[C@@H](CCCN)C(=O)N[C@H](CCN)C(=O)N[C@@H](CCN)C(=O)N[C@@H](Cc1c[nH]c3ccccc13)C(=O)N[C@@H](CCN)C(=O)N[C@@H](C(C)(C)C)C(=O)N2 [Example 24, cyclo(-Leu-Asp-Tyr-Dab-Orn-^DDab-Dab-Trp-Dab-tBuGly-Lys-Ser-^DPro-Pro-)] (HELM PEPTIDE1{L.D.Y.[Dab].[Orn].[NCC[C@@H](N[*:1])C(=O)[*:2]].[Dab].W.[Dab].[CC(C)(C)[C@H](N[*:1])C(=O)[*:2]].K.S.[dP].P}$PEPTIDE1,PEPTIDE1,2:R3-11:R3|PEPTIDE1,PEPTIDE1,1:R1-14:R2$$$V2.0)",1,0.5,0.5,0.5
"CC(C)C[C@@H]1NC(=O)[C@H]2CCCN2C(=O)[C@H](CO)NC(=O)[C@H](C)NC(=O)[C@H](C(C)(C)C)NC(=O)[C@H](CCN)NC(=O)[C@H](Cc2c[nH]c3ccccc23)NC(=O)[C@H](CCN)NC(=O)[C@@H](CCN)NC(=O)[C@H](CCCN)NC(=O)[C@H](CCN)NC(=O)[C@H](Cc2ccc(O)cc2)NC(=O)[C@H](CN)NC(=O)[C@H](Cc2ccccc2)NC1=O [Example 42, cyclo(-Phe-Dap-Tyr-Dab-Orn-^DDab-Dab-Trp-Dab-tBuGly-Ala-Ser-^DPro-Leu-)] (cyclo(AS[dP]LF[Dap]Y[Dab][Orn][dDab][Dab]W[Dab][Tle]))",4,1,1,1
"CC(C)C[C@@H]1NC(=O)[C@@H]2CCCN2C(=O)[C@H]2CCCN2C(=O)[C@H](CO)NC(=O)[C@@H]2CCNC(=O)CC[C@H](NC1=O)C(=O)N[C@@H](Cc1ccc(O)cc1)C(=O)N[C@@H](CCN)C(=O)N[C@@H](CCCN)C(=O)N[C@H](CCN)C(=O)N[C@@H](CCN)C(=O)N[C@@H](Cc1c[nH]c3ccccc13)C(=O)N[C@@H](CCN)C(=O)N[C@@H](C(C)(C)C)C(=O)N2 [Example 19, cyclo(-Leu-Glu-Tyr-Dab-Orn-^DDab-Dab-Trp-Dab-tBuGly-Dab-Ser-^DPro-Pro-)] (HELM PEPTIDE1{L.E.Y.[Dab].[Orn].[NCC[C@@H](N[*:1])C(=O)[*:2]].[Dab].W.[Dab].[CC(C)(C)[C@H](N[*:1])C(=O)[*:2]].[Dab].S.[dP].P}$PEPTIDE1,PEPTIDE1,2:R3-11:R3|PEPTIDE1,PEPTIDE1,1:R1-14:R2$$$V2.0)",3,3,8,0
"CC(C)[C@@H]1NC(=O)[C@@H]2CCCN2C(=O)[C@H]2CCCN2C(=O)[C@H](CO)NC(=O)[C@@H]2CNC(=O)NC[C@H](NC1=O)C(=O)N[C@@H](Cc1ccc(O)cc1)C(=O)N[C@@H](CCN)C(=O)N[C@@H](CN)C(=O)N[C@H](CCN)C(=O)N[C@@H](CCN)C(=O)N[C@@H](Cc1c[nH]c3ccccc13)C(=O)N[C@@H](CCN)C(=O)N[C@@H](C(C)(C)C)C(=O)N2 [Example 40, cyclo(-Val-Dap-Tyr-Dab-Dap-^DDab-Dab-Trp-Dab-tBuGly-Dap-Ser-^DPro-Pro-)] (cyclo(V[Dap]Y[Dab][Dap][dDab][Dab]W[Dab][Tle][Dap]S[dP]P); linker 2-11 via CO)",1,0.25,0.25,2
